In patent US12169196B2, “Human iPSC-based drug testing platform for muscular dystrophy” (The Johns Hopkins University, priority 2019, dated 2024):

Tests used:
D2 myoblasts = system: D2 myoblasts
Procedure: FIG. 7A: 9 primary hit compounds dose-response measured by MyHC antibody immunofluorescent intensity/nuclei. Concentrations of compounds were 0.001, 0.01, 0.1, 1, 2, 3, 4, 6 μM, except for saponin Q. which was 0.001, 0.01, 0.1, 0.2, 0.4, 0.6, 1 μM (n=3 for all). FIG. 7B: 9 primary hit compounds dose-response measured by α-actinin antibody immunofluorescent intensity/nuclei. Concentrations were same as in (FIG. 7A) (n=3 for all). FIGS. 7C-7E: Dose-response measured by cell average length of 3 analogs of saponin Q (n=3). […] (Data=Mean±SEM).
To further evaluate the efficacy of the 9 hit compounds and determine their optimal concentrations, an 8-point dose response assay was conducted, based on three parameters: anti-MyHC immunocytochemistry, anti-α-actinin immunocytochemistry and average cell length (FIGS. 7A-7B).

mdx^5cv mice [1] = experiment: Masson's trichrome fibrosis in diaphragm muscle; format: in vivo, mouse; conditions: ip, 10 mg/kg, 1344 h
From the text: (§1) All animal experiments were approved by the Institutional Animal Care and Use Committee (IACUC) of The Johns Hopkins University, School of Medicine (Baltimore, Maryland). Mdx^5cv (B6Ros.Cg-Dmdmdx-5Cv/J) were obtained from The Jackson Laboratory. Mice were maintained in a 12-h light cycle (7 am-7 pm) with ad libitum access to food and water. […] Ginsenoside Rd was suspended in saline containing 10% 1,3-propanediol as vector.
(§2) Gastrocnemius, tibialis anterior, and diaphragm muscles were embedded in OCT, frozen in isopentane, and cross-sectioned (˜2-10 μm thickness). The sections were also stained with DAPI to visualize nuclei. In mice where Evans blue dye (EBD, 10 mg/ml) was used to evaluate membrane damage, EBD was injected at 0.05 ml/10 g intraperitoneally, 24 hours before sacrificing the mice. To evaluate EBD staining, gastrocnemius muscle sections were fixed with acetone and imaged with fluorescence microscopy. The area of EBD as a percentage of total area was calculated. To evaluate the number of central nucleated fibers, sections of the tibialis anterior muscle were stained with hematoxylin and eosin. Central nucleated fiber number was counted and analyzed against total fiber number. Diaphragm sections (10 μm) were stained with Masson's trichrome to determine collagen content. The stained areas were quantified against the total area.

mdx^5cv mice [2] = experiment: Evans blue staining and central nucleated fiber histology; format: in vivo, mouse; conditions: 8 weeks treatment
From the text: as §1, §2

FLT3 signaling pathway = conditions: 5 μM, 24 h
From the text: Triplicate samples were used in microarray analysis. […] RNA was isolated using TRIzol (Invitrogen Life Technologies, Carlsbad, CA) followed by purification and DNase digestion using RNeasy mini kits (Qiagen, Venlo, Netherlands) according to manufacturer's instructions. […] Generation of sense strand cDNA from purified total RNA was followed by second strand synthesis, in vitro transcription cDNA synthesis, and single stranded cDNA synthesis and RNA hydrolysis. Fragmentation and labelling were performed according to manufacturer's instructions (GeneChip WT Plus reagent kit, Affymetrix, Santa). RNA extraction and qPCR were performed according to previous protocols, and primers are included in Table 1. The microarray data has been deposited in NCBI's Gene Expression Omnibus database and is accessible through the GEO series accession number GSE121023.

mdx^5cv mice [3] = experiment: Forelimb grip strength; format: in vivo, mouse; conditions: 8 weeks treatment
Procedure: as §1
Forelimb grip strength was measured as maximal tensile force using a computerized force transducer (Grip Strength Meter, Bioseb). Five measurements were performed for each animal and the maximum value was used for the analysis. Treadmill testing was performed using a motor-driven treadmill (Columbus Instruments). Prior to the test day, acclimatization was performed 5 times over a period of 2 weeks at 10 m/min. On the test day, mice ran at 5 m/min for 5 min (warm up) and the speed was increased 1 m/min every min up to 10 m/min. Mice were considered exhausted when they sat for more than 10 sec on a shock pad for the third time.

mdx^5cv mice [4] = experiment: Quadriceps strength and susceptibility to injury; format: in vivo, mouse
From the text: as §1
In vivo muscle physiology. Quadriceps strength (maximal isometric torque) and susceptibility to injury were assessed in vivo as described (69, 70). Briefly, animals were anaesthetized with 3-5% isoflurane and placed in a supine position. The thigh was stabilized and the ankle was secured on to a lever arm. The knee was aligned with the axis of the stepper motor (model T8904, NMB Technologies, Chatsworth, CA, USA) and a torque sensor (QWFK-8M, Sensotec, Columbus, OH, USA), and the femoral nerve was stimulated via subcutaneous needle electrodes. A custom program based on commercial software (LabView version 8.5, National Instruments, Austin, TX, USA) was used to synchronize contractile activation and the onset of forced knee flexion. The position of the leg that results in optimal muscle length has been previously described and maximum isometric torque was measured in Newton-millimeters (Nmm). Injury was induced by 15 forced lengthenings (knee flexion) superimposed onto maximal quadriceps contractions through a 40-100 degree arc of motion (with full knee extension considered 0 deg) spaced 1 min apart. Loss in maximal isometric torque was measured 5 min after the last lengthening contraction. Since the knee position, lever arm, and moment arm of the muscle are unchanged between tests, maximal isometric torque reflects maximal isometric muscle force.

MEF2C = MEF2C protein expression by Western blot and immunocytochemistry in D2 myoblasts; format: cell-based, human
From the text: FIG. 2C: Representative image of ginsenoside Rd-treated myoblasts labeled by MyHC. FIG. 2E Cell average length dose-response curve of ginsenoside Rd (FIGS. 2E-2F) Western blot quantification of MEF2C protein level post Saponin Q. and ginsenoside Rd treatment alongside healthy hiPSC derived myoblasts control and DMSO negative controls, *P 5 0.05, n=3. FIG. 2G: Quantification of MEF2C expressing nuclei of saponin Q. and ginsenoside Rd-treated D2 myoblasts, n=3, *P 5 0.05. (Data=Mean±SEM, one-way ANOVA with Dunnett's multiple comparison test with DMSO negative control).
Whole-cell extracts were prepared by lysing cells on plate with RIPA buffer (CST) supplemented by proteinase inhibitor and phosphatase inhibitor cocktail (CST). Western blotting was performed according to the standard protocol using precast NuPAGE (4-12%) Bis-Tris gel (Invitrogen). Protein transfer was performed with the Bio-Rad turbo or wet/tank blotting system. Nitrocellulose membranes were incubated with primary antibodies overnight at 4° C. Membranes were then incubated with a secondary IRDye 800 conjugated anti-rabbit IgG, or Alexa Fluor 680 anti-mouse IgG and proteins were visualized and quantified using the LI-COR Odyssey Infrared Imaging System (LI-COR). Primary antibodies applied in this study were all purchased from Cell Signaling Technology except for the MEF2C antibody, which was from Sigma.

With `CC(C)=CCC[C@](C)(O[C@@H]1O[C@H](CO)[C@@H](O)[C@H](O)[C@H]1O)[C@H]1CC[C@]2(C)[C@@H]1[C@H](O)C[C@@H]1[C@@]3(C)CC[C@H](O[C@@H]4O[C@H](CO)[C@@H](O)[C@H](O)[C@H]4O[C@@H]4O[C@H](CO)[C@@H](O)[C@H](O)[C@H]4O)C(C)(C)[C@@H]3CC[C@]12C` [ginsenoside Rd] the “fusion of DMD hiPSC-derived myoblasts” value (D2 myoblasts) was “helped restore fusion”, the “toxicity / cell death” value (D2 myoblasts) was “lower toxicity” and the “dose-dependent effect on D2 myoblasts (cell average length)” value (D2 myoblasts; saponin analog test) was “dose-dependent effect”. For the same compound, the “reduction of levels of fibrosis in diaphragm” value (mdx^5cv mice [1]) was 29%, the “number of Evans blue dye positive fibers” value (mdx^5cv mice [2]; gastrocnemius) was “not significantly different” and the central nucleated fibers (mdx^5cv mice [2]; tibialis anterior) was “not significantly different”. For the same compound, the “ingenuity pathway analysis z-score, FLT3 signaling pathway” value (FLT3 signaling pathway) was greater than 2, the “improvement of forelimb grip strength” value (mdx^5cv mice [3]) was 19% and the “loss in muscle force after contraction-induced injury, quadriceps” value (mdx^5cv mice [4]) was 56±4.8%. The “maximal isometric force generated by quadriceps muscle” value (mdx^5cv mice [4]; compared with sham control) was “no significant difference”, the “levels of MEF2C protein expression (Western blot)” value (MEF2C; vs DMSO) was “increased” and the “MEF2C expressing cells (immunocytochemistry)” value (MEF2C; vs vector control) was “more MEF2C expressing cells”.
